Data from US12611406B2, “Oxopiperazine derivatives for the treatment of cancer” (Inthera Bioscience AG, priority 2020, dated 2026).
Read-outs that look alike come from different tables or passages of the source.

Assay: 28-day once weekly oral repeated-dose DRF study in cynomolgus monkeys (mesylate salt)
Assay type: in vivo
Conditions: for Cmax / Tmax / half-life / AUC(0-t): cynomolgus monkey, po; for AUC(0-t): read-out: AUC0-Tlast
Procedure: The objective of the study was to determine the TK profile of Compound 1 following 4 weekly oral administrations to cynomolgus monkeys and to assess reversibility of any changes following a 13-day recovery period.
Male and female cynomolgus monkeys (n=1/sex/group) were orally administered Compound 1 (mesylate salt) at dose levels of 30, 45, 60, or 90 mg/kg/administration for 4 consecutive doses on study days 1, 8, 15, and 22. The vehicle was 0.5% (w/v) methyl cellulose 400 in sterile water. For TK analysis blood samples were collected from each monkey on Days 1, 8, 15 and 22 at pre-dose, 15 min, 30 min, as well as 1, 2, 4, 6, 8, 12, and 24 hours post-dose. Non-compartmental analysis of Compound 1 blood concentrations data sets was performed using the Phoenix® WinNonlin® software (version 6.4).

[1] = female, blood, 45 mg/kg, F, Day 1
[2] = female, blood, 45 mg/kg, F, Day 22
[3] = female, blood, 60 mg/kg, F, Day 1
[4] = female, blood, 60 mg/kg, F, Day 22
[5] = female, blood, 90 mg/kg, F, Day 1
[6] = female, whole blood, 30 mg/kg, F, Day 1
[7] = female, whole blood, 30 mg/kg, F, Day 22
[8] = male, blood, 60 mg/kg, M, Day 1
[9] = male, blood, 60 mg/kg, M, Day 22
[10] = male, blood, 90 mg/kg, M, Day 1
[11] = male, whole blood, 30 mg/kg, M, Day 1
[12] = male, whole blood, 30 mg/kg, M, Day 22
[13] = male, whole blood, 45 mg/kg, M, Day 1
[14] = male, whole blood, 45 mg/kg, M, Day 22

CC(C)C[C@@H]1NCCN([C@@H](CC(C)C)C(=O)N2CCC3(C[C@@H]2C)OCC(CN2CCCC2)CO3)C1=O (stereo partly drawn) [Compound 1, (S)-3-isobutyl-1-((S)-4-methyl-1-((S)-8-methyl-3-(pyrrolidin-1-ylmethyl)-1,5-dioxa-9-azaspiro[5.5]undecan-9-yl)-1-oxopentan-2-yl)piperazin-2-one]
Cmax [1]: 1460 ng/mL
Tmax [1]: 1.5 h
half-life [1]: 6.3 h
AUC(0-t) [1]: 4130 ng·h/mL
Cmax [2]: 1650 ng/mL
Tmax [2]: 1.5 h
half-life [2]: 5.8 h
AUC(0-t) [2]: 4810 ng·h/mL
Cmax [3]: 1830 ng/mL
Tmax [3]: 1 h
half-life [3]: 3.8 h
AUC(0-t) [3]: 7440 ng·h/mL
Cmax [4]: 4480 ng/mL
Tmax [4]: 2 h
half-life [4]: 4.4 h
AUC(0-t) [4]: 17400 ng·h/mL
Cmax [5]: 5030 ng/mL
Tmax [5]: 1.5 h
half-life [5]: 4.3 h
Cmax [6]: 296 ng/mL
Tmax [6]: 0.63 h
half-life [6]: 6.4 h
AUC(0-t) [6]: 894 ng·h/mL
Cmax [7]: 223 ng/mL
Tmax [7]: 1.25 h
half-life [7]: 5.5 h
AUC(0-t) [7]: 874 ng·h/mL
AUC(0-t) (female, whole blood, 90 mg/kg, F, Day 1): 18700 ng·h/mL
Cmax [8]: 449 ng/mL
Tmax [8]: 0.5 h
half-life [8]: 7.5 h
AUC(0-t) [8]: 1170 ng·h/mL
Cmax [9]: 2430 ng/mL
Tmax [9]: 1 h
half-life [9]: 5.7 h
AUC(0-t) [9]: 6710 ng·h/mL
Cmax [10]: 7300 ng/mL
Tmax [10]: 0.63 h
half-life [10]: 4.2 h
AUC(0-t) [10]: 22800 ng·h/mL
Cmax [11]: 229 ng/mL
Tmax [11]: 0.63 h
half-life [11]: 4.9 h
AUC(0-t) [11]: 721 ng·h/mL
Cmax [12]: 171 ng/mL
Tmax [12]: 2 h
half-life [12]: 2.6 h
AUC(0-t) [12]: 576 ng·h/mL
Cmax [13]: 1040 ng/mL
Tmax [13]: 1.5 h
half-life [13]: 7.6 h
AUC(0-t) [13]: 2950 ng·h/mL
Cmax [14]: 1350 ng/mL
Tmax [14]: 1.25 h
half-life [14]: 5.2 h
AUC(0-t) [14]: 3910 ng·h/mL
accumulation (once weekly for 4 weeks at doses up to 60 mg/kg): did not accumulate
tolerability (single oral administration of 90 mg/kg/adm): side effects in one animal
tolerability (weekly oral for 4 consecutive weeks at 30, 45, and 60 mg/kg/administration): well-tolerated
